From patent US12521361B2, “Use of sodium octanoate in preparation of medicine for improving the efficacy of cardiopulmonary resuscitation and post-resuscitation multiple organ dysfunction” (ZHEJIANG UNIVERSITY, priority 2021, dated 2026)
Marks after values point to notes of the source that are not given here.

Experiments:
Format in all cases: in vivo, domestic healthy male white pigs
[1] = test system: model of cardiac arrest and resuscitation; assay: Outcomes of cardiopulmonary resuscitation and cardiac/cerebral perfusion in pig model of cardiac arrest and resuscitation
Protocol: (§1) • 1. All animals started fasting without water deprivation 12 h before experiment. • 2. The experimental animals were firstly intramuscularly injected with midazolam by 0.4-0.5 mg/kg for induced anesthesia, connected to an electrocardiogram monitor, then injected with propofol by 2 mg/kg through ear vein for general anesthesia, and afterwards maintained in an anesthetic state through infusing 4 mg/kg/h via the vein. • 3. Endotracheal intubation, monitoring of partial pressure of end-tidal carbon dioxide (ETCO2), and mechanical ventilation were rapidly carried out, wherein ventilation parameters were an intermittent positive pressure ventilation (IPPV) mode, with oxygen concentration of 21%, tidal volume of 10 ml/kg, and positive end-expiratory pressure of 0 mmHg, and ETCO2 was maintained in a normal physiological range of 35-40 mmHg by adjusting respiratory frequency. • 4. Right femoral artery and vein were exposed by operation, and Swan-Ganz catheters were respectively disposed into thoracic aorta and right atrium, wherein the former was used to monitor aortic blood pressure and collect an arterial blood sample, and the catheter main chamber of the latter was used to monitor right atrial pressure and body temperature and collect a venous blood sample, a catheter side chamber was used to infuse a therapeutic medicine, and calculate the level of coronary perfusion pressure (CPP) according to the difference between decompression diastolic aortic and time-coincident right atrial pressures. • 5. Right external jugular vein was exposed by operation, and an inducing electrode for ventricular fibrillation was disposed into right ventricle to induce ventricular fibrillation later. • 6. Right internal jugular vein and left femoral artery were exposed by operation, a central venous catheter and a thermodilution arterial catheter were respectively disposed therein, and the two were connected to a pulse indication continuous cardiac output (PiCCO) monitor, for monitoring the changes of cardiac function including stroke volume (SV) and global ejection fraction (GEF). • 7. Right carotid artery was exposed by operation, superficial fascia was stripped off, a carotid blood flow sensor was arranged, and then a blood flow velocity ultrasonic recorder was connected to monitor the change of carotid blood flow (CBF) in real time. • 8. The animals' forehead hair was shaved off, to expose forehead skin. The forehead skin was cleaned with alcohol, and attached with a cerebral oxygen monitoring probe, and then a cerebral oxygen monitor was attached to monitor the change of regional cerebral oxygen saturation (rSO2) in real time. • 9. The body temperature of the animals was maintained at a normal temperature of about 38° C. all the time by using a temperature control blanket.
• 1. Setting model conditions: 8 min of cardiac arrest and 8 min of cardiopulmonary resuscitation. • 2. Cardiac arrest method: inducing ventricular fibrillation by right ventricular electrode discharge, and observing for 8 min without intervention. • 3. Cardiopulmonary resuscitation method: • 1) continuous manual external chest compression; • 2) mechanical ventilation was carried out by using a respirator (parameters were IPPV (intermittent positive pressure ventilation) mode, with oxygen concentration of 100%, tidal volume of 7 ml/kg, respiratory frequency of 10 times/min, and positive end-expiratory pressure of 0 mmHg); • 3) adrenalin: when cardiopulmonary resuscitation was performed for 2 min, adrenalin was given by 20 μg/kg, thereafter, the same was repeated every 4 min; • 4) defibrillation: when cardiopulmonary resuscitation was performed for 8 min, 150 J electrical defibrillation was performed once; and • 5) if spontaneous circulation was not restored, cardiopulmonary resuscitation was immediately restarted for 2 min, followed by one time of defibrillation. This cycle was repeated for 5 times or less until the resuscitation was successful or declared to be failed. • 4. […]

[2] = test system: model of cardiac arrest and resuscitation; assay: Cardiac function (PiCCO) and myocardial injury biomarker after resuscitation; conditions: 28.5 mg/kg i.v., P<0.05, FIG. 2
Protocol: as §1, with “Right carotid artery was exposed by operation, superficial fascia was stripped off, a carotid blood flow sensor was arranged, and then a blood flow velocity ultrasonic recorder was connected to monitor the change of carotid blood flow (CBF) in real time. • 8. The animals' forehead hair was shaved off, to expose forehead skin. The forehead skin was cleaned with alcohol, and attached with a cerebral oxygen monitoring probe, and then a cerebral oxygen monitor was attached to monitor the change of regional cerebral oxygen saturation (rSO2) in real time. • 9. The body temperature of the animals was maintained at a normal temperature of about 38° C. all the time by using a temperature control blanket.” left out

[3] = test system: model of cardiac arrest and resuscitation; assay: Cerebral function (NDS) and brain injury biomarkers after resuscitation; conditions: 28.5 mg/kg i.v., P<0.05, FIG. 3
Protocol: (§2) • 1. Setting model conditions: 8 min of cardiac arrest and 8 min of cardiopulmonary resuscitation. • 2. Cardiac arrest method: inducing ventricular fibrillation by right ventricular electrode discharge, and observing for 8 min without intervention. • 3. […]
(§3) • 1. Changes in physiological indexes such as heart rate, blood pressure, ETCO2, CBF, rSO2, and body temperature were dynamically monitored throughout the experiment, and the survival outcomes of the animals at 4 h and 24 h were recorded. • 2. During cardiopulmonary resuscitation, the changes in CPP, ETCO2, CBF, and rSO2 were continuously monitored dynamically, and the duration of cardiopulmonary resuscitation, number of defibrillation, dosage of adrenaline, and rate of return of spontaneous circulation of various groups of animals were recorded. • 3. Before modeling and at 1 h, 2 h, and 4 h after resuscitation, the changes in cardiac function such as SV and GEF were periodically detected by using a PiCCO monitor. • 4. […] The blood plasma was frozen and stored in a −80° C. deep hypothermia freezer, and serum levels of myocardial injury biomarker cardiac troponin I (cTnI), brain injury biomarker neuron specific enolase (NSE) and S100B protein (S100B), renal and intestinal injury biomarker creatinine (Cr) and intestinal fatty acid-binding protein (iFABP) were detected by using an enzyme-linked immunosorbent assay at selected time. • 5. […]

[4] = test system: model of cardiac arrest and resuscitation; assay: Renal and intestinal injury biomarkers after resuscitation; conditions: 28.5 mg/kg i.v., P<0.05, FIG. 4
Protocol: as §2, §3

[5] = test system: model of cardiac arrest and resuscitation; assay: Cell apoptosis in heart, brain, kidney and intestine by TUNEL after resuscitation; conditions: at 24 h after resuscitation, 28.5 mg/kg i.v., P<0.05, FIG. 5
Protocol: as §2, §3

[6] = during cardiopulmonary resuscitation, almost all time points, 28.5 mg/kg i.v., P<0.05, FIG. 1
[7] = in words, 28.5 mg/kg i.v., P<0.05
[8] = pigs, sodium octanoate 28.5 mg/kg intravenously at start of CPR, n=8, P<0.05 vs CPR group
[9] = pigs, sodium octanoate 28.5 mg/kg intravenously at start of CPR, P<0.05 vs CPR group
[10] = starting 1 h after resuscitation

CCCCCCCC(=O)[O-].[Na+] [SO, sodium octanoate]
CBF (carotid blood flow) compared with the CPR group [1, 6]: obviously higher
CPP (coronary perfusion pressure) compared with the CPR group [1, 6]: obviously higher
ETCO2 (partial pressure of end-tidal carbon dioxide) compared with the CPR group [1, 6]: obviously higher
rSO2 (regional cerebral oxygen saturation) compared with the CPR group [1, 6]: obviously higher
Dosage of adrenaline compared with the CPR group [1, 7]: decreased
Duration of cardiopulmonary resuscitation compared with the CPR group [1, 7]: shortened
Number of defibrillation compared with the CPR group [1, 7]: reduced
Rate of return of spontaneous circulation compared with the CPR group [1, 7]: increased
Survival rates at 4 h and 24 h post-resuscitation compared with the CPR group [1, 7]: increased
Duration of cardiopulmonary resuscitation ([1]; pigs, 8 min cardiac arrest, sodium octanoate 28.5 mg/kg intravenously at start of CPR, n=8, P<0.05 vs CPR group): 8.00 ± 0.00 min
Dosage of adrenaline [1, 8]: 1.59 ± 0.08 mg
Number of defibrillation [1, 8]: 1.00 ± 0.00 n
4-h survival [1, 9]: 8/8^#
24-h survival [1, 9]: 8/8^#
Return of spontaneous circulation [1, 9]: 8/8^#
GEF (global ejection fraction) compared with the CPR group [2, 10]: obviously higher
SV (stroke volume) compared with the CPR group [2, 10]: obviously higher
Serum level of cTnI (cardiac troponin I) compared with the CPR group ([2]; starting 4 h after resuscitation): markedly lower
Serum level of S100B compared with the CPR group ([3]; at 1 h, 2 h, and 24 h after resuscitation): remarkably reduced
Serum level of NSE (neuron specific enolase) compared with the CPR group ([3]; at 4 h and 24 h after resuscitation): remarkably reduced
NDS (neurological deficit score) compared with the CPR group ([3]; at 24 h after resuscitation): remarkably lower
Serum levels of Cr (creatinine) compared with the CPR group ([4]; at 2 h and 24 h after resuscitation): remarkably reduced
Serum level of iFABP (intestinal fatty acid-binding protein) compared with the CPR group ([4]; at 24 h after resuscitation): remarkably reduced
Cell apoptosis of various organs (heart, brain, kidney, intestine; TUNEL) compared with the CPR group [5]: remarkably reduced
